# Experiment: gradient 5% acetonitrile 3 min, to 50% in 2 min, to 85% in 15 min, held 3 min, 100 µL/min
# Conditions: column: Zorbax Extend-C18 2.1 x 50 mm; eluents: water / acetonitrile, 0.1% formic acid
# How it was run: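 Pure standards were run in mixtures of ~100 molecules by HPLC coupled to a quadrupole time-of-flight mass spectrometer. The column was a Zorbax Extend-C18 (2.1 × 50 mm, 1.8 μm) at 100 μL/min, with water and acetonitrile each containing 0.1% formic acid, in positive and negative ionization mode. Dead and dwell volumes were 40 μL and 900 μL. Retention time was taken from computationally picked adduct peaks, each manually inspected, with data collected over 3 months.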
row,SMILES,RP-LC retention time
1,O=C(c1cc(S(=O)(=O)N2CCCC(C(=O)N3CCc4ccccc4C3)C2)c[nH]1)N1CCCC1 (configuration not stated),808 s
2,COc1ccc(N2CC(CNC(=O)Nc3c(F)cccc3F)CC2=O)cc1 (configuration not stated),658 s
3,Nc1ncnc2c1ncn2C1CCCC1,595 s
4,O=C(Nc1nc2ccc([N+](=O)[O-])cc2s1)c1ccc(Br)s1,1040 s
5,CC(NC(=O)c1cn(-c2ncccc2-c2nc(-c3ccccc3)no2)cn1)c1ccccc1 (configuration not stated),966 s
6,Cc1noc(C)c1S(=O)(=O)N(Cc1cccs1)Cc1cccn1C,1000 s
7,CCCn1cc(C(=O)NCC(=O)OCC)c(S(=O)(=O)N2CCN(c3ccccc3Cl)CC2)n1,1090 s
8,COc1cccc(-c2nc(-c3ccc4c(c3)ncn4CCN3CCCC3)no2)c1OC,643 s
9,CCCCN(CC)S(=O)(=O)c1ccc(C(=O)Nc2nc3c(s2)Cc2ccccc2-3)cc1,1230 s
10,CCCCNC(=O)CN1CCN(C(=O)c2sc3ncccc3c2-n2cccc2)CC1,647 s
11,CC(C)c1noc(-c2ccnc(-n3cnc(C(=O)N4CCSCC4)c3)c2)n1,863 s
12,CC1(C(=O)NCc2cccc(F)c2)CCCN(S(=O)(=O)c2ccccc2)C1 (configuration not stated),902 s
13,Cc1cc(C)n(-c2cc(N3CCCC3)ncn2)n1,764 s
14,COc1ccc(NC(=O)Cn2c(=O)n(-c3ccc(F)cc3)c(=O)c3c2cc(C)n3C)cc1OC,739 s
15,Cn1c(=O)n(CC(=O)O)c(=O)c2c1nc1n2CCN1c1ccc(Cl)cc1,748 s
16,CCOC(=O)c1c(C)[nH]c(C(=O)N2CCCC(C(=O)NCc3ccc(F)cc3)C2)c1C (configuration not stated),803 s
17,CC(C)CNC(=O)N1CCCCC1c1nncn1-c1ccccc1 (configuration not stated),683 s
18,Cc1ccccc1-c1noc(C2CCCN2S(=O)(=O)c2ccc(Br)s2)n1 (configuration not stated),1230 s
19,O=C(NC1CCN(c2cc(-c3ccccc3)[nH]n2)C1)c1ccc(Br)cc1 (configuration not stated),752 s
20,Cc1cccc(N2C(=O)CN(Cc3ccccc3F)[C@H]3CS(=O)(=O)C[C@H]32)c1,803 s
21,CCn1c(=O)c(NCc2ccccc2Cl)nc2ccncc21,659 s
22,CC(C)CNC(=O)NCCC1CCN(S(=O)(=O)c2ccccc2)CC1,808 s
23,O=C(c1ccc(Br)cc1)N1CCN(c2nc(CN3CCCCC3)cs2)CC1,655 s

row,SMILES,RP-LC retention time
1,COc1ccc(NC(=O)Cn2nc3nc(N4CCOCC4)ccn3c2=O)cc1F,602 s
2,CCc1noc2nc(C)n(CC(=O)NC3CCCc4ccccc43)c(=O)c12 (configuration not stated),867 s
3,COc1ccc(-c2csc(NC3=NS(=O)(=O)c4ccccc43)n2)cc1,886 s
4,O=C(NCC1CN(CC2CC2)CC12CCCCC2)Nc1cc(F)ccc1F (configuration not stated),718 s
5,CCCN1CCN(C(=O)CN2CCN(C(=O)Nc3ccc(Br)cc3)CC2=O)CC1,597 s
6,Cc1nc(-c2ccc3c(c2)CCN3C(=O)c2nccc3ccccc23)cs1,1040 s
7,Cc1c(F)cccc1NC(=O)N(C)CC1CCOC1 (configuration not stated),745 s
8,CCC(=Cc1ccc(CC)cn1)CC,686 s
9,Cc1ccc(-c2ccc(-n3nc(C)c(S(=O)(=O)N4CCOCC4)c3C)nn2)cc1C,1060 s
10,Fc1cccc(-c2noc(-c3ccc(N4CCN(Cc5ccc6c(c5)OCO6)CC4)nc3)n2)c1,834 s
11,COc1ccc2nc(Nc3nc(-c4ccncc4)cs3)sc2c1,584 s
12,CCNc1cc(N2CCC(CCC(=O)Nc3ccc(OC)c(OC)c3)CC2)ncn1,614 s
13,O=C(COc1ccc(Cl)cc1)NCC1CCOCC1,764 s
14,Cc1sc2ncn(CC(=O)NCCCC(=O)N3CCCC(C)C3)c(=O)c2c1C (configuration not stated),721 s
15,CCn1ccc2sc(C)c(C(=O)N3CCN(c4ccc(F)cc4)CC3)c2c1=O,808 s
16,CS(=O)(=O)N(C1CCOCC1)C1CN(C(=O)NCCc2ccccc2)C1,684 s
17,O=C(NCC1(c2cccs2)CC1)c1ccc(F)c(F)c1,887 s
18,COc1ccc(Nc2c(-c3nc(C)no3)cnc3nc(C)ccc23)cc1Cl,736 s
19,Cc1ccc(-n2ncc3c(=O)n(Cc4nc(-c5ccc(OC(C)C)cc5)no4)cnc32)cc1Cl,726 s
20,COc1cccc(CN2CC(=O)N(Cc3ccc(F)cc3)c3ccccc3S2(=O)=O)c1,1100 s
21,COCC(=O)N1CCCc2ccc(NC(=O)C3CC(=O)N(c4ccc(F)cc4)C3)cc21 (configuration not stated),681 s
22,Cc1cnn(CCC(=O)NC2CCN(c3ccc(=O)n(CC4CC4)n3)C2)c1 (configuration not stated),654 s
23,O=C(c1cn(-c2cc(-c3nc(C4CC4)no3)ccn2)cn1)N1CCOCC1,708 s

row,SMILES,RP-LC retention time
1,COc1ccc(-c2nnc(-c3ccc(C)c(S(=O)(=O)N4CCSCC4)c3)o2)cc1OC,970 s
2,COc1nccc(N2CCC(CC(=O)NCc3cccc(OC)c3OC)CC2)n1,607 s
3,Cc1ccc(CN2C(=O)NC3(CCN(C(=O)c4ccsc4)CC3)C2=O)cc1,778 s
4,COc1ccc(S(=O)(=O)N2CCCC(C(=O)Nc3ccc4c(c3)OCCO4)C2)cc1Cl (configuration not stated),938 s
5,COc1ccc(-c2nnc(-c3cccc(S(=O)(=O)N4CCCCCC4)c3)o2)cc1OC,1020 s
6,Cc1cccc(S(=O)(=O)N2CCc3nc(-c4ccc(Cl)cc4)ncc3C2)c1,1210 s
7,Cc1nn(-c2ccc(N3CCOCC3)nn2)c(C)c1CCC(=O)Nc1ccc(F)cc1F,719 s
8,Cc1cc(=O)n(CC(=O)NC2CCCC2)c(N2CCOCC2)n1,599 s
9,COCc1noc([C@@H]2CC(F)(F)CN2C(=O)C2CCC2)n1,746 s
10,CC1=C(c2ccccc2)S(=O)(=O)N=C1N1CCCN(C(=O)Nc2cccc(C)c2)CC1,709 s
11,CS(=O)(=O)N1CCC(C(=O)NCc2ccc(Cl)cc2)Oc2ccccc21 (configuration not stated),1010 s
12,CN(C)c1ncccc1NC(=O)Nc1ccccc1F,601 s
13,CCCc1nc(-c2ccccc2)oc1CC(=O)Nc1ccc(Cl)cc1C,1090 s
14,COc1ccc(C2Cn3nnc(-c4nc(-c5ccccc5)no4)c3CO2)cc1 (configuration not stated),1100 s
15,CC(C)NC(=O)c1ccc(OCC2CCCN(C(=O)Cc3ccccc3F)C2)cc1 (configuration not stated),875 s
16,CCn1nccc1C(=O)NCC1Cn2cccc2C(=O)N1CC(C)C (configuration not stated),698 s
17,Cc1cccc(-c2nnc(-c3nc(NCCc4cnc[nH]4)c4ccccc4n3)o2)c1,672 s
18,COc1cc(OC)cc(-c2noc(-c3nn(-c4cccc(F)c4)ccc3=O)n2)c1,881 s
19,Cc1ccccc1C(=O)Nc1nc(-c2ccc3c(c2)N(C)C(=O)CO3)cs1,939 s
20,Cc1cc(=O)n(CC(=O)Nc2ccc(F)cc2Cl)c(N2CCOCC2)n1,672 s
21,CCc1nn(C)c(=O)c2cc(S(=O)(=O)NCc3ccccc3)cn12,831 s

# From the METLIN SMRT retention time set (Domingo-Almenara et al. 2019)
